Assays:
Assay type in all cases: cell-based, human
HPRT [1] = experiment: CRISPR knock-in of Pol-II-driven shRNA into CCR5 region of K562 cells, 6-TG selection, HPRT staining; details: for obvious cytotoxicity in K562 cells: knock-in
Source text: It has been well known that some polymerase III-dependent short-hairpin RNAs have overexpression issues and can induce acute cytotoxicity. […] This is an important concern when considering the use of RNA interference (RNAi) as a potential therapeutic approach, especially in stem cell gene therapy. Here, polymerase II was used as alternative promoter to express microRNA so as to effectuate knockdown of the expression of HPRT. A CRISPR/Cas9 gene editing approach was utilized, and a Cas9 with a single guide RNA (Cas9 RNP) targeting CCR5, together with a single-stranded DNA oligonucleotide donor (ssODN) encoding an HPRT Pol II driven shRNA, was used to enable efficient replacement of the CCR5 locus with a functional HPRT miRNA. […] For knock-in of sh211 and sh734, the obvious cytotoxicity in K562 cells was not observed.

K562 cells = experiment: in vitro 6TG selection and stability of transduced K562 cells (VCN, % GFP+); details: 6TG selected
Protocol: 4) 2×10^5 cells of control K562, 6 samples transduced at dilution factor 32 and 6 samples transduced at dilution factor 1 are reseeded in 6-well plate with 4 mL of RPMI without and with 300 nM of 6-thioguanine, respectively. 2.5×10^6 cells of 6 samples transduced at dilution factor 1 are made through mixing transduced and untransduced cells at ratio of 1:3. Two cell pellets (1×10^6 cells each) for DNA & RNA analysis for these 6 samples will be frozen down. The medium is refreshed every 3-4 days. K562 transduced with TL20cw-7SK/sh734-GFP (dilution factor at 256 and 8) will be included as positive controls.
5) Two cell pellets (1×10^6 cells each) for DNA & RNA analysis for 13 samples including control K562 will be frozen down at day 7/14/21 or even 28(MY). Copy numbers of GbG and sh734 are analyzed. The samples at day 21/28 are optional if the copy numbers of all samples are higher than 95% of expected value for day 14. […]
K562 cells were transduced with sh734 for 21 days before initiating 6TG treatment for 14 days (shaded areas). With reference to FIGS. 49A through 49G, vector copy number (VCN) was determined every two weeks from genomic DNA by multiplex RU5 qPCR and absolute quantitation from a standard curve using lentiviral vector (HIV-1-based LTR R-U5) target and human Apolipoprotein B (ApoB) reference sequences. […]

HPRT [2] = experiment: HPRT knockdown in transduced K562 cells (qRT-PCR); details: after 6TG treatment
Protocol: With reference to FIG. 50, K562 cells were transduced with TL20c-rGbGM-7SK/sh734 or TL20c GbG^M21 days before initiating 6TG treatment. RNA was isolated and qRT-PCRT was performed to determine the number of copies of sh734 relative to RNU38B and normalized to VCN (relative expression/VCN). Relative expression levels of sh734 and HPRT were determined every two weeks post-transduction. The graph illustrated sh734 plotted on the left Y-axis and the percent of HPRT knockdown related to mock transduced cells (HPRT/mock×100) and normalized to VCN plotted on the right Y axis.
K562 cells were transduced with the sh7-GFP mono-vector reporter construct or CAL-H for 21 days before initiating 6TG. RNA was isolated, and qRT-PCR performed to determine the number of copies of sh734 relative to RNU38B and normalized to VCN (relative expression/VCN). FIGS. 51A and 51B illustrates the percent HPRT knockdown relative to mock transduced cells (HPRT/mock×100) normalized to VCN is plotted on the right Y axis. […] 14 days after selection, HPRT levels became undetectable in transduced cultures. 6TG selected K562 cells continued to grow and express sh734 after 3-months in culture (data not shown). […] At day 21, K562 cultures transduced with the sh7-GFP reporter construct were 35% GFP+ and increased to 88% GFP+ cells by day 42 following 6TG treatment.

Molecule	obvious cytotoxicity in K562 cells (HPRT [1])	duration of sh734 expression and function in culture (K562 cells)	HPRT levels (HPRT [2])	HPRT levels (HPRT staining) (HPRT [1]; K562 cells after three weeks of 6-TG selection, control 99%) [%]
sh211: shRNA targeting an HPRT gene, SEQ ID NO: 28 (GGTTATGACCTTGATTTATACCTGACCCATATTAAATCAAGGTCATAACCTTTTT)	not observed			
sh734: shRNA targeting an HPRT gene, SEQ ID NO: 30 (AGGATATGCCCTTGACTATTTGTCCGACATAGTCAAGGGCATATCCTTTTTT)	not observed	greater than 3 months	less than 10 % of untreated cells	
sh211-3G: sh211 embedded in the miRNA-3G backbone, SEQ ID NO: 25; Pol-II (EF1a) driven (nucleic acid, Synthetic miRNA211-3G, Pol-II (EF1a) driven) CCGGATCAACGCCCTAGGTTTATGTTTGGATGAACTGACATACGCGTATCCGTCTTTTAAATCAAGGTCATAACCGTAGTGAAATATATATTAAACAGGTTATGACCTTGATTTAAAATACGGTAACGCGGAATTCGCAACTATTTTATCAATTTTTTGCGTCGAC				12

— patent US11795461B2, “Compositions and methods for treating beta-hemoglobinopathies” (CSL Behring Gene Therapy, Inc., priority 2017, dated 2023)
